Series [1] is described as follows: Orienting acute toxicity in mice. To be noted: mouse, in vivo, po, observation period 7 days. As to the method:
The orienting acute toxicity of the compounds was determined after administering a dose to groups of 6 or 10 mice each with body weights between 10 and 26 gm (observation period: 7 days).

Series [2] deals with tonic extensor spasm of the rear legs of male mice under maximum electric shock. The experiment in a line: Anticonvulsant activity in mice (inhibition of tonic extensor spasm under maximum electric shock). In kind it is in vivo, male SPF mice (Chbb:NMRI). To be noted: Mus musculus, po, p.o., 10 mice/dose. As to the method: 1. Anticonvulsant activity in mice
The anticonvulsant activity was tested as the inhibition of the tonic extensor spasm of the rear legs of male mice under maximum electric shock.
The test animals were male SPF mice (Chbb:NMRI) weighing 20 to 26 g which, up to one hour before oral administration of the test compound, had access to standard feed and drinking water.
The test procedure was based on that of SWINYARD, BROWN and GOODMAN (J. Pharmacol. Exp. Ther. 106, 319 [1952]). The electrical shock equipment was manufactured in accordance with information provided by WOODBURY and DAVENPORT (Arch. int. Pharmacodyn. 92, 97 [1952]). The electrical stimuli were applied to the heads of the animals above the eyes using chamois-covered steel ball electrodes moistened with a 0.9% NaCl solution. The stimulus lasted 0.2 sec. using alternating current of 50 Hz and 50 mA. There was a […] and then a tonic stretching spasm of the extremities in the case of all the controls.
The substance to be tested was suspended in a 1% tylose slurry and was perorally administered in a volume of 0.1 ml/10 gm mouse to 10 mice/dose. […], and the ED50 values were determined as the dosages sufficient to protect 50% of the animals against the tonic stretching spasm of the rear extremities, either graphically or by the method of LITCHFIELD and WILCOXON (J. Pharmacol. Exp. Ther. 96, 99 [1949]).

Setting [3] is: 0.5 h, shock 30 minutes after administration, read-out: ED50, 30 minutes.
Setting [4] is: 2.5 h, shock 150 minutes after administration, read-out: ED50, 150 minutes.
Where [5] appears, read: 5 h, shock 300 minutes after administration, read-out: ED50, 300 minutes.

The structures appear in SMILES notation. Like-named read-outs stand apart in the source and are kept apart here.

In series [1], `N/C(=C1/Sc2ccccc2C1=O)c1ccccc1` [A, (E)-2-[(amino)phenylmethylene]-benzo[b]thiophen-3(2H)-one] yielded an LD50 at 168 h of 2400 mg/kg. The ED50 in series [2] (setting [3]) came to 12.8 mg/kg; in series [2] (setting [4]) it was 37 mg/kg; in series [2] (setting [5]) it was 46 mg/kg.
Turning to `CN/C(=C1/Sc2ccccc2C1=O)c1ccccc1` [B, (E)-2-[(methylamino)phenylmethylene]-benzo[b]thiophen-3(2H)-one], the LD50 at 168 h in series [1] was greater than 1000 mg/kg. In addition, the ED50 came out at 90 mg/kg in series [2] (setting [3]), 38 mg/kg in series [2] (setting [4]) and 49 mg/kg in series [2] (setting [5]).
Turning to `N/C(=C1/Sc2ccccc2C1=O)c1ccccc1Cl` [C, (E)-2-[(amino)-(2-chloro-phenyl)methylene]-benzo[b]thiophen-3(2H)-one], the LD50 at 168 h in series [1] is 500 to 1000 mg/kg. The ED50 in series [2] (setting [3]) was found to be 7 mg/kg; in series [2] (setting [4]) it was 4.4 mg/kg; in series [2] (setting [5]) it was 5 mg/kg.
`O=C1/C(=C(\NCCO)c2ccccc2)Sc2ccccc21` [D, (E)-2-{[(2-hydroxy-ethyl)amino]phenylmethylene}benzo[b]thiophen-3(2H)-one] came in with an LD50 at 168 h in series [1] greater than 1000 mg/kg. Besides, the ED50 in series [2] (setting [3]) is 33 mg/kg; in series [2] (setting [4]), 41 mg/kg; in series [2] (setting [5]), 42.5 mg/kg.
`Cc1ccccc1/C(N)=C1\Sc2ccccc2C1=O` [E, (E)-2-[(amino)-(2-methyl-phenyl)methylene]-benzo[b]-thiophen-3(2H)-one] had an LD50 at 168 h in series [1] greater than 1000 mg/kg. In addition, the ED50 is 22.8 mg/kg in series [2] (setting [3]), 13.3 mg/kg in series [2] (setting [4]) and 15.7 mg/kg in series [2] (setting [5]).
As to `CCN/C(=C1/Sc2ccccc2C1=O)c1ccccc1` [F, (E)-2-[(ethylamino)phenylmethylene]-benzo[b]thiophen-3(2H)-one], in series [1], the median lethal dose (LD50) at 168 h is greater than 1000 mg/kg. The values for the ED50 in series [2] (setting [3]), in series [2] (setting [4]) and in series [2] (setting [5]) were 22.5 mg/kg, 54.6 mg/kg and 79 mg/kg, respectively.

These data come from patent US4288437A, “2-[(Amino)-aryl-methylene]-benzo[b]thiophen-3(2H)-ones” (Boehringer Ingelheim GmbH, priority 1979, dated 1981).
